Data reported in PubChem BioAssay AID330 (DTP/NCI, 2004).
Where “and” joins values, the source holds several entries; their conditions need not be identical. Equal entries are not always repeated. Toxic doses and inconclusive results are not listed. Square brackets hold non-standard residues; d marks the D form. Peptide text beside a SMILES is read from it. ξ: configuration not given here. ξI = CCC(C)C(N)C(=O)O

Test system: P388 leukemia ip, CD2F1 mice, survival T/C
Assay: NCI In Vivo Anticancer Drug Screen. Data for tumor model P388 Leukemia (intraperitoneal) in CD2F1 (CDF1) mice
Conditions: endpoint: median survival time, higher = longer survival
Method in brief: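 Mice carrying the transplanted tumor received test compound or vehicle. Survival was recorded in each group, and the value is the treated-group measurement divided by that of the vehicle-treated control group.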

[1] = dose: 50.0 mg/kg/injection, schedule: Q01DX009 (ip), vehicle: saline
[2] = dose: 100.0 mg/kg/injection, schedule: Q01DX009 (ip), vehicle: saline
[3] = dose: 200.0 mg/kg/injection, schedule: Q01DX009 (ip), vehicle: saline
[4] = dose: 60.0 mg/kg/injection, schedule: Q01DX005 (ip), vehicle: Klucel (hydroxypropylcellulose) (HPC)
[5] = dose: 120.0 mg/kg/injection, schedule: Q01DX005 (ip), vehicle: Klucel (hydroxypropylcellulose) (HPC)
[6] = dose: 240.0 mg/kg/injection, schedule: Q01DX005 (ip), vehicle: Klucel (hydroxypropylcellulose) (HPC)
[7] = dose: 50.0 mg/kg/injection, schedule: Q01DX009 (ip), vehicle: saline with Tween-80
[8] = dose: 100.0 mg/kg/injection, schedule: Q01DX009 (ip), vehicle: saline with Tween-80
[9] = dose: 200.0 mg/kg/injection, schedule: Q01DX009 (ip), vehicle: saline with Tween-80
[10] = dose: 60.0 mg/kg/injection, schedule: Q01DX005 (ip), vehicle: saline with Tween-80
[11] = dose: 120.0 mg/kg/injection, schedule: Q01DX005 (ip), vehicle: saline with Tween-80

O=C1OC(=O)C2=C1CCC2
T/C (dose: 12.5 mg/kg/injection, schedule: Q01DX009 (ip), vehicle: distilled water + Tween-80): 100 % of control
T/C (dose: 25.0 mg/kg/injection, schedule: Q01DX009 (ip), vehicle: distilled water + Tween-80): 100 % of control
T/C (dose: 50.0 mg/kg/injection, schedule: Q01DX009 (ip), vehicle: distilled water + Tween-80): 91 % of control

Cc1ccc(Nc2ccc3c4c(cc(=O)n3C)-c3ccccc3C(=O)c24)c(S(=O)(=O)O)c1
T/C [1]: 87 % of control
T/C [2]: 91 % of control
T/C [3]: 99 % of control
T/C (dose: 400.0 mg/kg/injection, schedule: Q01DX009 (ip), vehicle: saline): 95 % of control

O=[N+]([O-])c1ccc(-[n+]2ccc3ccccc3c2)c([N+](=O)[O-])c1
T/C (dose: 12.5 mg/kg/injection, schedule: Q01DX005 (ip), vehicle: saline): 110 % of control
T/C (dose: 25.0 mg/kg/injection, schedule: Q01DX005 (ip), vehicle: saline): 106 % of control
T/C (dose: 50.0 mg/kg/injection, schedule: Q01DX005 (ip), vehicle: saline): 104 % of control and 111 % of control

Nc1nnnn1CCCl
T/C (dose: 50.0 mg/kg/injection, schedule: Q01DX005 (ip), vehicle: saline with Tween-80): 94 % of control
T/C (dose: 100.0 mg/kg/injection, schedule: Q01DX005 (ip), vehicle: saline with Tween-80): 103 % of control
T/C (dose: 200.0 mg/kg/injection, schedule: Q01DX005 (ip), vehicle: saline with Tween-80): 106 % of control

O=C1CCC(N(CC#CCN(C2=NC(=O)CC2)c2ccccc2)c2ccccc2)=N1
T/C [4]: 103 % of control
T/C [5]: 100 % of control
T/C [6]: 97 % of control

Cc1ccc(NC(=O)c2cc3ccccc3cc2O)c(C)c1.Cc1ccc(NC(=O)c2cc3ccccc3cc2O)c(C)c1.[Mn+2]
T/C [1]: 87 % of control
T/C [2]: 86 % of control
T/C [3]: 86 % of control

CC1(C)CC(N2CCN(CCO)CC2)=CC(=S)N1
T/C (dose: 50.0 mg/kg/injection, schedule: Q01DX005 (ip), vehicle: Klucel (hydroxypropylcellulose) (HPC)): 103 % of control
T/C (dose: 100.0 mg/kg/injection, schedule: Q01DX005 (ip), vehicle: Klucel (hydroxypropylcellulose) (HPC)): 93 % of control
T/C (dose: 200.0 mg/kg/injection, schedule: Q01DX005 (ip), vehicle: Klucel (hydroxypropylcellulose) (HPC)): 104 % of control

CCOc1ccc2nc([NH-])sc2c1.CCOc1ccc2nc([NH-])sc2c1.CCOc1ccc2nc([NH-])sc2c1.CCOc1ccc2nc([NH-])sc2c1.[Cl][Rh][Cl]
T/C (dose: 12.5 mg/kg/injection, schedule: Q01DX001 (ip), vehicle: DMSO): 102 % of control
T/C (dose: 25.0 mg/kg/injection, schedule: Q01DX001 (ip), vehicle: DMSO): 102 % of control and 105 % of control
T/C (dose: 50.0 mg/kg/injection, schedule: Q01DX001 (ip), vehicle: DMSO): 107 % of control and 94 % of control
T/C (dose: 100.0 mg/kg/injection, schedule: Q01DX001 (ip), vehicle: DMSO): 113 % of control and 124 % of control and 91 % of control

O=P1(O)CC2=C(CC=CC2)C1
T/C [7]: 98 % of control
T/C [8]: 89 % of control
T/C [9]: 98 % of control

O=C1NC(c2ccccc2)(c2ccccc2)C(=O)N1CN1CCN(CN2C(=O)NC(c3ccccc3)(c3ccccc3)C2=O)CC1
T/C (dose: 25.0 mg/kg/injection, schedule: Q01DX001 (ip), vehicle: saline with Tween-80): 100 % of control
T/C (dose: 50.0 mg/kg/injection, schedule: Q01DX001 (ip), vehicle: saline with Tween-80): 95 % of control
T/C (dose: 100.0 mg/kg/injection, schedule: Q01DX001 (ip), vehicle: saline with Tween-80): 90 % of control

CC(=O)OCc1cc[n+](C)cc1
T/C (dose: 12.5 mg/kg/injection, schedule: Q01DX009 (ip), vehicle: water): 100 % of control
T/C (dose: 25.0 mg/kg/injection, schedule: Q01DX009 (ip), vehicle: water): 105 % of control
T/C (dose: 50.0 mg/kg/injection, schedule: Q01DX009 (ip), vehicle: water): 101 % of control
T/C (dose: 100.0 mg/kg/injection, schedule: Q01DX009 (ip), vehicle: water): 102 % of control
T/C (dose: 200.0 mg/kg/injection, schedule: Q01DX009 (ip), vehicle: water): 93 % of control
T/C (dose: 400.0 mg/kg/injection, schedule: Q01DX009 (ip), vehicle: water): 112 % of control

Cc1ccc(S(=O)(=O)C2(Sc3ccccc3)SC2C(=O)c2ccccc2)cc1 (stereo not drawn)
T/C (dose: 50.0 mg/kg/injection, schedule: Q01DX009 (ip), vehicle: Klucel (hydroxypropylcellulose) (HPC)): 99 % of control
T/C (dose: 100.0 mg/kg/injection, schedule: Q01DX009 (ip), vehicle: Klucel (hydroxypropylcellulose) (HPC)): 105 % of control
T/C (dose: 200.0 mg/kg/injection, schedule: Q01DX009 (ip), vehicle: Klucel (hydroxypropylcellulose) (HPC)): 111 % of control

COc1ccc(CC(CO)NC(=O)c2ccccc2)cc1 (stereo not drawn)
T/C (dose: 100.0 mg/kg/injection, schedule: Q04DX002 (ip), vehicle: Klucel (hydroxypropylcellulose) (HPC)): 101 % of control
T/C (dose: 200.0 mg/kg/injection, schedule: Q04DX002 (ip), vehicle: Klucel (hydroxypropylcellulose) (HPC)): 108 % of control
T/C (dose: 400.0 mg/kg/injection, schedule: Q04DX002 (ip), vehicle: Klucel (hydroxypropylcellulose) (HPC)): 94 % of control

CCC(C)C(N)C(=O)NCC(=O)O (stereo not drawn) (H-[ξI]-Gly-OH)
T/C (dose: 60.0 mg/kg/injection, schedule: Q01DX005 (ip), vehicle: saline): 96 % of control
T/C (dose: 120.0 mg/kg/injection, schedule: Q01DX005 (ip), vehicle: saline): 96 % of control
T/C (dose: 240.0 mg/kg/injection, schedule: Q01DX005 (ip), vehicle: saline): 96 % of control

COc1cc2c(cc1OC)NC(=O)C2
T/C (dose: 50.0 mg/kg/injection, schedule: Q04DX003 (ip), vehicle: saline with Tween-80): 97 % of control
T/C (dose: 100.0 mg/kg/injection, schedule: Q04DX003 (ip), vehicle: saline with Tween-80): 98 % of control

OCC1OC2C(NC(=S)N2c2ccccc2)C(O)C1O (stereo not drawn)
T/C [10]: 101 % of control
T/C [11]: 98 % of control
T/C (dose: 240.0 mg/kg/injection, schedule: Q01DX005 (ip), vehicle: saline with Tween-80): 104 % of control

Cn1c(=O)c2nc(-c3ccc(Cl)c(Cl)c3)oc2n(C)c1=O
T/C [1]: 109 % of control
T/C [2]: 111 % of control
T/C [3]: 100 % of control

c1cc(-c2ncc3ccncc3n2)ccn1
T/C [4]: 109 % of control
T/C [5]: 100 % of control
T/C [6]: 98 % of control

O=C(O)c1cc(N=C=S)ccc1-c1c2ccc(=O)cc-2oc2cc(O)ccc12
T/C (dose: 12.5 mg/kg/injection, schedule: Q01DX005 (ip), vehicle: saline + Tween-80 + alcohol): 105 % of control
T/C (dose: 25.0 mg/kg/injection, schedule: Q01DX005 (ip), vehicle: saline + Tween-80 + alcohol): 105 % of control
T/C (dose: 50.0 mg/kg/injection, schedule: Q01DX005 (ip), vehicle: saline + Tween-80 + alcohol): 105 % of control
T/C [10]: 114 % of control
T/C [11]: 115 % of control

[Cl][Hg][c]1cccc(I)c1N=Nc1ccccc1
T/C (dose: 2.5 mg/kg/injection, schedule: Q01DX009 (ip), vehicle: saline + alcohol): 104 % of control
T/C (dose: 5.0 mg/kg/injection, schedule: Q01DX009 (ip), vehicle: saline + alcohol): 94 % of control

COc1ccc(N=C2C(=Nc3ccc(OC)cc3)N(c3ccc(OC)cc3)C(=S)N2C(=O)c2ccc(Cl)cc2)cc1
T/C (dose: 50.0 mg/kg/injection, schedule: Q01DX005 (ip), vehicle: Klucel + Tween-80): 90 % of control
T/C (dose: 100.0 mg/kg/injection, schedule: Q01DX005 (ip), vehicle: Klucel + Tween-80): 93 % of control
T/C (dose: 200.0 mg/kg/injection, schedule: Q01DX005 (ip), vehicle: Klucel + Tween-80): 90 % of control

COc1cc2c(c(OC)c1OC)-c1ccc(SCc3ccccc3)c(=O)cc1[C@@H](NC(C)=O)CC2
T/C (dose: 1.56 mg/kg/injection, schedule: Q01DX009 (ip), vehicle: Klucel (hydroxypropylcellulose) (HPC)): 105 % of control and 111 % of control and 122 % of control
T/C (dose: 1.56 mg/kg/injection, schedule: Q01DX009 (ip), vehicle: saline with Tween-80): 96 % of control
T/C (dose: 3.12 mg/kg/injection, schedule: Q01DX009 (ip), vehicle: Klucel (hydroxypropylcellulose) (HPC)): 105 % of control and 123 % of control
T/C (dose: 3.12 mg/kg/injection, schedule: Q01DX009 (ip), vehicle: saline with Tween-80): 105 % of control
T/C (dose: 6.25 mg/kg/injection, schedule: Q01DX009 (ip), vehicle: saline with Tween-80): 105 % of control
T/C (dose: 12.5 mg/kg/injection, schedule: Q01DX009 (ip), vehicle: Klucel (hydroxypropylcellulose) (HPC)): 169 % of control and 214 % of control
T/C (dose: 25.0 mg/kg/injection, schedule: Q01DX009 (ip), vehicle: Klucel (hydroxypropylcellulose) (HPC)): 92 % of control

CC12OC3(C)c4ccccc4OP3(c3ccccc3)(Oc3ccccc31)O2 (stereo not drawn)
T/C [7]: 99 % of control
T/C [8]: 97 % of control
T/C [9]: 88 % of control
